Results taken from US9423396B2, “Bodipy structure fluorescence probes for diverse biological applications” (National University of Singapore, priority 2011, dated 2016).

Assay: Spectroscopic measurements (absorption, emission, quantum yield, extinction coefficient)
Format: physicochemical
[1] = BDNCA library, difference emission minus absorption
[2] = BDNCA library, extinction coefficient; in M-1 cm-1 (unit assumed)
[3] = BDNCA library, fluorescence emission
[4] = absorption maximum, BDNCA library
[5] = difference of emission and absorption maxima
[6] = extinction coefficient, BDNCA library; in M-1 cm-1 (unit assumed)
[7] = fluorescence emission maximum, BDNCA library

Row | SMILES | Qunt. Yield (BDNCA library) | Abs (BDNCA library, absorption) [nm] | Flu-Abs [1] | ε [2] | Flu [3] | Abs [4] [nm] | Flu-Abs [5] | ε [6] | Flu [7] | Qunt. Yield (quantum yield, BDNCA library)
1 | CC1=CC(/C=C/c2cc(Cl)ccc2O)=[N+]2C1=C(c1ccc(NC(=O)CCl)cc1)c1cccn1[B-]2(F)F [BDNCA-121] | 0.06 | 564 | 21 | 39,817 | 585 |  |  |  |  | 
2 | CC1=CC(/C=C/c2ccc3ccc4cccc5ccc2c3c45)=[N+]2C1=C(c1ccc(NC(=O)CCl)cc1)c1cccn1[B-]2(F)F [BDNCA-103] | 0.04 | 598 | 82 | 28,558 | 680 |  |  |  |  | 
3 | CC1=CC(/C=C/c2cccc3c2OCO3)=[N+]2C1=C(c1ccc(NC(=O)CCl)cc1)c1cccn1[B-]2(F)F [BDNCA-231] | 0.04 | 559 | 19 | 33,227 | 578 |  |  |  |  | 
4 | COc1ccccc1/C=C/c1cc(C)c2n1[B-](F)(F)[N+]1=CC=CC1=C2c1ccc(NC(=O)CCl)cc1 [BDNCA-198] | 0.15 | 561 | 26 | 76,064 | 587 |  |  |  |  | 
5 | CC1=CC(/C=C/c2c(C)cc(C)cc2C)=[N+]2C1=C(c1ccc(NC(=O)CCl)cc1)c1cccn1[B-]2(F)F [BDNCA-108] | 0.10 | 549 | 33 | 39,542 | 582 |  |  |  |  | 
6 | CC1=CC(/C=C/c2ccc(-c3ccccc3)c(F)c2)=[N+]2C1=C(c1ccc(NC(=O)CCl)cc1)c1cccn1[B-]2(F)F [BDNCA-425] |  |  |  |  |  | 562 | 21 | 46,957 | 583 | 0.11
7 | Cc1cc(/C=C/c2cc(Cl)ccc2Cl)n2c1C(c1ccc(NC(=O)CCl)cc1)=C1C=CC=[N+]1[B-]2(F)F [BDNCA-407] |  |  |  |  |  | 555 | 20 | 42,288 | 575 | 0.07
8 | COc1cccc(F)c1/C=C/C1=[N+]2C(=C(c3ccc(NC(=O)CCl)cc3)c3cccn3[B-]2(F)F)C(C)=C1 [BDNCA-254] | 0.09 | 559 | 22 | 56,018 | 581 |  |  |  |  | 
9 | Cc1cc(/C=C/c2ccc3c(c2)OC(F)(F)O3)n2c1C(c1ccc(NC(=O)CCl)cc1)=C1C=CC=[N+]1[B-]2(F)F [BDNCA-332] |  |  |  |  |  | 556 | 19 | 27,735 | 575 | 0.05
10 | CCOc1ccc(/C=C/C2=[N+]3C(=C(c4ccc(NC(=O)CCl)cc4)c4cccn4[B-]3(F)F)C(C)=C2)cc1 [BDNCA-429] |  |  |  |  |  | 566 | 33 | 64,531 | 599 | 0.14
11 | CC1=CC(/C=C/c2c3ccccc3cc3ccccc23)=[N+]2C1=C(c1ccc(NC(=O)CCl)cc1)c1cccn1[B-]2(F)F [BDNCA-6] | weak | 536 |  | 41,465 | weak |  |  |  |  | 
12 | CCCOc1ccc(/C=C/c2cc(C)c3n2[B-](F)(F)[N+]2=CC=CC2=C3c2ccc(NC(=O)CCl)cc2)cc1 [BDNCA-140] | 0.07 | 566 | 32 | 27,185 | 598 |  |  |  |  | 
13 | CC1=CC(/C=C/c2ccc(I)cc2)=[N+]2C1=C(c1ccc(NC(=O)CCl)cc1)c1cccn1[B-]2(F)F [BDNCA-237] | 0.13 | 560 | 19 | 70,572 | 579 |  |  |  |  | 
14 | CC1=CC(/C=C/c2ccc(OCc3ccccc3)c(OCc3ccccc3)c2)=[N+]2C1=C(c1ccc(NC(=O)CCl)cc1)c1cccn1[B-]2(F)F [BDNCA-4] | 0.18 | 570 | 41 | 79,908 | 611 |  |  |  |  | 
15 | CC(=O)Nc1ccc(/C=C/C2=[N+]3C(=C(c4ccc(NC(=O)CCl)cc4)c4cccn4[B-]3(F)F)C(C)=C2)cc1 [BDNCA-111] | 0.04 | 570 | 29 | 18,947 | 599 |  |  |  |  | 
16 | CC1=CC(/C=C/c2ccc(N(c3ccccc3)c3ccccc3)cc2)=[N+]2C1=C(c1ccc(NC(=O)CCl)cc1)c1cccn1[B-]2(F)F [BDNCA-14] |  | 599 |  | 35,149 |  |  |  |  |  | 
17 | CC1=CC(/C=C/c2cc3ccccc3o2)=[N+]2C1=C(c1ccc(NC(=O)CCl)cc1)c1cccn1[B-]2(F)F [BDNCA-368] |  |  |  |  |  | 578 | 23 | 21,968 | 601 | 0.03
18 | Cc1cc(/C=C/c2ccccc2OCC(=O)O)n2c1C(c1ccc(NC(=O)CCl)cc1)=C1C=CC=[N+]1[B-]2(F)F [BDNCA-128] | 0.02 | 559 | 25 | 14,554 | 584 |  |  |  |  | 
19 | COc1cc(Cl)c(/C=C/C2=[N+]3C(=C(c4ccc(NC(=O)CCl)cc4)c4cccn4[B-]3(F)F)C(C)=C2)c(Cl)c1O [BDNCA-220] | 0.01 | 559 | 24 | 40,915 | 583 |  |  |  |  | 

Row | SMILES | Qunt. Yield (BDNCA library) | Abs (BDNCA library, absorption) [nm] | Flu-Abs [1] | ε [2] | Flu [3] | Abs [4] [nm] | Flu-Abs [5] | ε [6] | Flu [7] | Qunt. Yield (quantum yield, BDNCA library)
20 | COc1cc(O)c(/C=C/C2=[N+]3C(=C(c4ccc(NC(=O)CCl)cc4)c4cccn4[B-]3(F)F)C(C)=C2)c(OC)c1 [BDNCA-366] |  |  |  |  |  | 579 | 50 | 38,444 | 629 | 0.02
21 | COc1ccc(-c2ccc(/C=C/C3=[N+]4C(=C(c5ccc(NC(=O)CCl)cc5)c5cccn5[B-]4(F)F)C(C)=C3)o2)cc1Cl [BDNCA-195] | 0.01 | 605 |  | 21,968 | 681 |  |  |  |  | 
22 | Cc1cc(/C=C/c2ccc(Br)cc2)n2c1C(c1ccc(NC(=O)CCl)cc1)=C1C=CC=[N+]1[B-]2(F)F [BDNCA-409] |  |  |  |  |  | 557 | 20 | 87,597 | 577 | 0.14
23 | CC1=CC(/C=C/c2ccc(-n3ccnc3)cc2)=[N+]2C1=C(c1ccc(NC(=O)CCl)cc1)c1cccn1[B-]2(F)F [BDNCA-8] | 0.04 | 562 | 20 | 29,108 | 582 |  |  |  |  | 
24 | COc1cc(/C=C/C2=[N+]3C(=C(c4ccc(NC(=O)CCl)cc4)c4cccn4[B-]3(F)F)C(C)=C2)c(OCc2ccccc2)cc1OC [BDNCA-223] | weak | 583 |  | 59,863 | weak |  |  |  |  | 
25 | CC1=CC(/C=C/c2nccn2C)=[N+]2C1=C(c1ccc(NC(=O)CCl)cc1)c1cccn1[B-]2(F)F [BDNCA-72] | 0.02 | 573 | 45 | 17,849 | 618 |  |  |  |  | 
26 | Cc1cc(/C=C/c2ccc(SC(F)(F)F)cc2)n2c1C(c1ccc(NC(=O)CCl)cc1)=C1C=CC=[N+]1[B-]2(F)F [BDNCA-363] |  |  |  |  |  | 558 | 18 | 41,190 | 576 | 0.08
27 | Cc1cc(/C=C/c2ccc(OCc3ccc(Br)cc3)cc2)n2c1C(c1ccc(NC(=O)CCl)cc1)=C1C=CC=[N+]1[B-]2(F)F [BDNCA-52] | 0.05 | 556 | 24 | 36,247 | 580 |  |  |  |  | 
28 | COc1cccc(/C=C/C2=[N+]3C(=C(c4ccc(NC(=O)CCl)cc4)c4cccn4[B-]3(F)F)C(C)=C2)c1F [BDNCA-314] |  |  |  |  |  | 554 | 21 | 52,998 | 575 | 0.11
29 | CC1=CC(/C=C/c2ccc(C)c3ccccc23)=[N+]2C1=C(c1ccc(NC(=O)CCl)cc1)c1cccn1[B-]2(F)F [BDNCA-36] | 0.08 | 572 | 38 | 30,755 | 610 |  |  |  |  | 
30 | Cc1cc(/C=C/c2cc(OC(F)(F)F)ccc2O)n2c1C(c1ccc(NC(=O)CCl)cc1)=C1C=CC=[N+]1[B-]2(F)F [BDNCA-346] |  |  |  |  |  | 561 | 23 | 16,476 | 584 | 0.02
31 | COc1cc(/C=C/C2=[N+]3C(=C(c4ccc(NC(=O)CCl)cc4)c4cccn4[B-]3(F)F)C(C)=C2)cc(Cl)c1O [BDNCA-29] | 0.01 | 567 | 30 | 25,812 | 597 |  |  |  |  | 
32 | COc1cccc(/C=C/C2=[N+]3C(=C(c4ccc(NC(=O)CCl)cc4)c4cccn4[B-]3(F)F)C(C)=C2)c1Cl [BDNCA-281] | 0.14 | 556 | 20 | 79,908 | 576 |  |  |  |  | 
33 | COc1cc(/C=C/C2=[N+]3C(=C(c4ccc(NC(=O)CCl)cc4)c4cccn4[B-]3(F)F)C(C)=C2)cc(OC)c1 [BDNCA-209] | 0.12 | 556 | 20 | 62,334 | 576 |  |  |  |  | 
34 | CC1=CC(/C=C/c2ccc(Oc3ccc(C)cc3)cc2)=[N+]2C1=C(c1ccc(NC(=O)CCl)cc1)c1cccn1[B-]2(F)F [BDNCA-300] | 0.21 | 563 | 27 | 102,151 | 590 |  |  |  |  | 
35 | COc1ccc(/C=C/c2cc(C)c3n2[B-](F)(F)[N+]2=CC=CC2=C3c2ccc(NC(=O)CCl)cc2)c(Cl)c1OC [BDNCA-372] |  |  |  |  |  | 565 | 29 | 69,474 | 594 | 0.13
36 | CC1=CC(/C=C/c2ccc(Oc3cccc(Cl)c3)cc2)=[N+]2C1=C(c1ccc(NC(=O)CCl)cc1)c1cccn1[B-]2(F)F [BDNCA-290] | 0.14 | 557 | 20 | 65,629 | 577 |  |  |  |  | 
37 | Cc1cc(/C=C/c2ccc(Oc3ccc(Cl)cc3)cc2)n2c1C(c1ccc(NC(=O)CCl)cc1)=C1C=CC=[N+]1[B-]2(F)F [BDNCA-277] | 0.15 | 561 | 24 | 65,080 | 585 |  |  |  |  | 
